The numbers were not newly measured in patent publication US20250345309A1, “IMMUNE HEALTH IMPROVERS” (Amazentis SA, priority 2024, published 2025), which cites them from elsewhere.

For this data set the following is noted: over 4 months, middle-aged adults (Singh et al. 2022); cited from earlier work.

SMILES strings stand for the structures.

As for `O=c1oc2cc(O)ccc2c2ccc(O)cc12` [Urolithin A (UA)], the “Safety and tolerability of long-term oral administration” value is “safe and well tolerated”.
